Measurements: patent publication US20240108601A1, “TREATMENT OF MENTAL DISORDERS” (GH Research Ireland Limited, priority 2022, published 2024)
Where “and” joins values, the source holds several entries; their conditions need not be identical. Equal entries are not always repeated.

System: patients with treatment-resistant major depressive disorder (TRD)
Assay: Phase 1/2 clinical trial of inhaled 5-MeO-DMT in treatment-resistant depression
Settings: for MADRS Concentration Difficulties % improvement / MADRS Concentration Difficulties improvement / MADRS Inability to Feel % improvement / MADRS Inability to Feel improvement / MADRS Inner Tension % improvement / MADRS Inner Tension improvement / MADRS Lassitude % improvement / MADRS Lassitude improvement / MADRS Pessimistic Thoughts % improvement / MADRS Pessimistic Thoughts improvement / MADRS Suicidal Thoughts % improvement / MADRS Suicidal Thoughts improvement / MADRS Suicidal Thoughts aggregated score / MADRS Inner Tension aggregated score / MADRS Concentration Difficulties aggregated score / MADRS Inability to Feel aggregated score / MADRS Lassitude aggregated score / MADRS Pessimistic Thoughts aggregated score / BPRS Anxiety % improvement / BPRS Anxiety improvement / BPRS Blunted Affect % improvement / BPRS Blunted Affect improvement / BPRS Emotional Withdrawal % improvement / BPRS Emotional Withdrawal improvement / BPRS Guilt Feelings % improvement / BPRS Guilt Feelings improvement / BPRS Tension % improvement / BPRS Tension improvement / BPRS Blunted Affect aggregated score / BPRS Emotional Withdrawal aggregated score / BPRS Tension aggregated score / BPRS Guilt Feelings aggregated score / BPRS Anxiety aggregated score / MADRS Reduced Sleep % improvement / MADRS Reduced Sleep improvement / MADRS Reduced Sleep aggregated score: 12 mg n=4; for MADRS Suicidal Thoughts aggregated score: baseline 8; for MADRS Inner Tension aggregated score / BPRS Emotional Withdrawal aggregated score: baseline 13; for MADRS Concentration Difficulties aggregated score / MADRS Inability to Feel aggregated score / MADRS Lassitude aggregated score / MADRS Pessimistic Thoughts aggregated score: baseline 16; for BPRS Blunted Affect aggregated score: baseline 11; for BPRS Tension aggregated score: baseline 14; for BPRS Guilt Feelings aggregated score: baseline 18; for BPRS Anxiety aggregated score: baseline 25; for MADRS Reduced Sleep aggregated score: baseline 12
Experimental: Patients were assigned to different groups. In the context of the present invention, the group who received a single, 12 mg dose and the group who underwent an intra-day individualized dosing regimen (IDR) that allowed for multiple, escalating doses (6 mg, 12 mg and 18 mg) within a single day, driven by the intensity of the patient-reported psychedelic experience are of interest.
The data gathered include the assessment of the treated patients against several scales including the Montgomery Åsberg Depression Rating Scale (MADRS) and the Brief Psychiatric Rating Scale (BPRS).
This trial was designed in two parts. Part A was an open-label, single-arm, single-dose Phase 1 trial with two dose levels (12 mg (n=4) and 18 mg (n=4)). […] The primary endpoint of Part B was to assess the effects on the severity of depression, as assessed by the proportion of patients in remission on day seven after dosing, defined as a MADRS total score of less than or equal to 10.

Compound: COc1ccc2[nH]cc(CCN(C)C)c2c1 [5-MeO-DMT]
- Patients with MADRS remission (total score ≤10) (12 mg group n=4, day seven): 50%
- Mean MADRS change from baseline (12 mg group, day seven): −21.0
- Mean MADRS change from baseline, percent (12 mg group, day seven): −65%
- MADRS Concentration Difficulties % improvement (2 h): 56% and 56.25%
- MADRS Concentration Difficulties improvement (2 h): 9 points
- MADRS Inability to Feel % improvement (2 h): 44% and 43.75%
- MADRS Inability to Feel improvement (2 h): 7 points
- MADRS Inner Tension % improvement (2 h): 85% and 84.62%
- MADRS Inner Tension improvement (2 h): 11 points
- MADRS Lassitude % improvement (2 h): 38% and 37.50%
- MADRS Lassitude improvement (2 h): 6 points
- MADRS Pessimistic Thoughts % improvement (2 h): 50%
- MADRS Pessimistic Thoughts improvement (2 h): 8 points
- MADRS Suicidal Thoughts % improvement (2 h): 63% and 62.50%
- MADRS Suicidal Thoughts improvement (2 h): 5 points
- MADRS Suicidal Thoughts aggregated score (2 h): 3
- MADRS Inner Tension aggregated score (2 h): 2
- MADRS Concentration Difficulties aggregated score (2 h): 7
- MADRS Inability to Feel aggregated score (2 h): 9
- MADRS Lassitude aggregated score (2 h): 10
- MADRS Pessimistic Thoughts aggregated score (2 h): 8
- BPRS Anxiety % improvement (3 h): 56%
- BPRS Anxiety improvement (3 h): 14 points
- BPRS Blunted Affect % improvement (3 h): 27% and 27.27%
- BPRS Blunted Affect improvement (3 h): 3 points
- BPRS Emotional Withdrawal % improvement (3 h): 15% and 15.38%
- BPRS Emotional Withdrawal improvement (3 h): 2 points
- BPRS Guilt Feelings % improvement (3 h): 50%
- BPRS Guilt Feelings improvement (3 h): 9 points
- BPRS Tension % improvement (3 h): 36% and 35.71%
- BPRS Tension improvement (3 h): 5 points
- BPRS Blunted Affect aggregated score (3 h): 8
- BPRS Emotional Withdrawal aggregated score (3 h): 11
- BPRS Tension aggregated score (3 h): 9
- BPRS Guilt Feelings aggregated score (3 h): 9
- BPRS Anxiety aggregated score (3 h): 11
- BPRS Anxiety % improvement (day 1): 76%
- BPRS Anxiety improvement (day 1): 19 points
- BPRS Blunted Affect % improvement (day 1): 45% and 45.45%
- BPRS Blunted Affect improvement (day 1): 5 points
- BPRS Emotional Withdrawal % improvement (day 1): 38% and 38.46%
- BPRS Emotional Withdrawal improvement (day 1): 5 points
- BPRS Guilt Feelings % improvement (day 1): 72% and 72.22%
- BPRS Guilt Feelings improvement (day 1): 13 points
- BPRS Tension % improvement (day 1): 57% and 57.14%
- BPRS Tension improvement (day 1): 8 points
- MADRS Concentration Difficulties % improvement (day 1): 88% and 87.50%
- MADRS Concentration Difficulties improvement (day 1): 14 points
- MADRS Inability to Feel % improvement (day 1): 94% and 93.75%
- MADRS Inability to Feel improvement (day 1): 15 points
- MADRS Inner Tension % improvement (day 1): 77% and 76.92%
- MADRS Inner Tension improvement (day 1): 10 points
- MADRS Lassitude % improvement (day 1): 100%
- MADRS Lassitude improvement (day 1): 16 points
- MADRS Pessimistic Thoughts % improvement (day 1): 56% and 56.25%
- MADRS Pessimistic Thoughts improvement (day 1): 9 points
- MADRS Reduced Sleep % improvement (day 1): 17% and 16.67%
- MADRS Reduced Sleep improvement (day 1): 2 points
- MADRS Suicidal Thoughts % improvement (day 1): 38% and 37.50%
- MADRS Suicidal Thoughts improvement (day 1): 3 points
- MADRS Suicidal Thoughts aggregated score (day 1): 5
- BPRS Blunted Affect aggregated score (day 1): 6
- MADRS Reduced Sleep aggregated score (day 1): 10
- BPRS Emotional Withdrawal aggregated score (day 1): 8
- MADRS Inner Tension aggregated score (day 1): 3
- BPRS Tension aggregated score (day 1): 6
- MADRS Concentration Difficulties aggregated score (day 1): 2
- MADRS Inability to Feel aggregated score (day 1): 1
- MADRS Lassitude aggregated score (day 1): 0
- MADRS Pessimistic Thoughts aggregated score (day 1): 7
- BPRS Guilt Feelings aggregated score (day 1): 5
- BPRS Anxiety aggregated score (day 1): 6
- BPRS Anxiety % improvement (day 7): 76%
- BPRS Anxiety improvement (day 7): 19 points
- BPRS Blunted Affect % improvement (day 7): 55% and 54.55%
- BPRS Blunted Affect improvement (day 7): 6 points
- BPRS Emotional Withdrawal % improvement (day 7): 54% and 53.85%
- BPRS Emotional Withdrawal improvement (day 7): 7 points
- BPRS Guilt Feelings % improvement (day 7): 72% and 72.22%
- BPRS Guilt Feelings improvement (day 7): 13 points
- BPRS Tension % improvement (day 7): 57% and 57.14%
- BPRS Tension improvement (day 7): 8 points
- MADRS Concentration Difficulties % improvement (day 7): 81% and 81.25%
- MADRS Concentration Difficulties improvement (day 7): 13 points
- MADRS Inability to Feel % improvement (day 7): 94% and 93.75%
- MADRS Inability to Feel improvement (day 7): 15 points
- MADRS Inner Tension % improvement (day 7): 62% and 61.54%
- MADRS Inner Tension improvement (day 7): 8 points
- MADRS Lassitude % improvement (day 7): 81% and 81.25%
- MADRS Lassitude improvement (day 7): 13 points
- MADRS Pessimistic Thoughts % improvement (day 7): 50%
- MADRS Pessimistic Thoughts improvement (day 7): 8 points
- MADRS Reduced Sleep % improvement (day 7): 50%
- MADRS Reduced Sleep improvement (day 7): 6 points
- MADRS Suicidal Thoughts % improvement (day 7): 13% and 12.50%
- MADRS Suicidal Thoughts improvement (day 7): 1 points
- MADRS Suicidal Thoughts aggregated score (day 7): 7
- BPRS Blunted Affect aggregated score (day 7): 5
- MADRS Reduced Sleep aggregated score (day 7): 6
- BPRS Emotional Withdrawal aggregated score (day 7): 6
- MADRS Inner Tension aggregated score (day 7): 5
- BPRS Tension aggregated score (day 7): 6
- MADRS Concentration Difficulties aggregated score (day 7): 3
- MADRS Inability to Feel aggregated score (day 7): 1
- MADRS Lassitude aggregated score (day 7): 3
- MADRS Pessimistic Thoughts aggregated score (day 7): 8
- BPRS Guilt Feelings aggregated score (day 7): 5
- BPRS Anxiety aggregated score (day 7): 6
- Further patients with MADRS clinical response (18 mg group n=4, day seven): 25%
- Patients with MADRS remission (total score ≤10) (18 mg group n=4, day seven): 25%
- Mean MADRS change from baseline (18 mg group, day seven): −12.8
- Mean MADRS change from baseline, percent (18 mg group, day seven): −41%
- Patients with MADRS remission (total score ≤10) (IDR (Part B) n=8, day seven, p<0.0001): 87.5%
